Consider 2 molecules from ChEMBL document CHEMBL1126889, “Dopamine receptor modulation by a highly rigid spiro bicyclic peptidomimetic of Pro-Leu-Gly-NH2” (J Med Chem, 1993).

Experiment [1] concerns the target T1, Dopamine receptor (Bos taurus) (UniProt Q95136+P20288). Put plainly: Tested for ability to enhance the binding of the dopamine receptor agonist [3H]-ADTN to striatal dopamine receptors in vitro at 10 e-6 M. Format: protein assay.
Experiment [2] addresses T1, Dopamine receptor (Bos taurus). The experiment in a line: Tested for ability to enhance the binding of the dopamine receptor agonist [3H]ADTN to striatal dopamine receptors in vitro. Format: protein assay.

SMILES strings stand for the structures. Residues, ends and D or L forms follow the SMILES beside them.

On to `NC(=O)[C@H]1CS[C@@H]2C[C@]3(CCCN3C(=O)C3CCCN3)C(=O)N12` (some centres not stated), for which the Binding in experiment [1] worked out at 40%.
On to `CC(C)C[C@H](NC(=O)[C@@H]1CCCN1)C(=O)NCC(N)=O` (H-Pro-Leu-Gly-NH2), for which the Binding in experiment [2] amounted to 26%.
